Experimental data as given in patent US12564194B2, “Herbicide mixture, herbicidal composition, method and kit for controlling undesired vegetation” (Adama Agan Ltd., priority 2020, dated 2026).

Columns and labels:
Type in all cases: in vivo
Aegilops tauschii [1] = experiment: Soil sealing treatment pot experiment for controlling Aegilops tauschii, more mixing ratios (Example 3)
Text: (§1) Referring to an article of Colby, S. R. i.e., Calculation of the synergistic and antagonistic response of herbicide combinations. Weeds 1967, 15, pp. 20-22 (which is incorporated herein in its entirety by reference), the theoretical value E0 of a given mixture of three active ingredients may be predicted according to the following equation, then evaluating whether there is synergy.
(§2) [formula] • wherein: • E0 is the theoretical fresh weight survival rate for the mixture of pyroxasulfone, chlorotoluron and […]; • X is the measured fresh weight survival rate for pyroxasulfone used alone in the same dosage as that in the mixture; • Y is the measured fresh weight survival rate for chlorotoluron used alone in the same dosage as that in the mixture; • Z is the measured fresh weight survival rate for mesosulfuron-methyl used alone in the same dosage as that in the mixture. • E is the measured fresh weight survival rate for the mixture of pyroxasulfone, chlorotoluron and mesosulfuron-methyl. • E0-E value is calculated to evaluate the combined effect of pyroxasulfone, chlorotoluron and mesosulfuron-methyl on the selected weeds.
(§3) In this example, the herbicidal activity of a mixture of pyroxasulfone, chlorotoluron and mesosulfuron-methyl for soil sealing treatment to control Aegilops tauschii is investigated by a pot experiment method under the conditions of a glass greenhouse. This example is carried out in accordance with “NY/T 1155.4-2006 Guidelines for Indoor Bioassay Tests of Pesticides, Herbicides Part 4: Activity Determination Tests, Stem and Leaf Spray Method”.
(§4) • Pyroxasulfone: pyroxasulfone (850 g/Kg, WG) from Adama Agan LTD. • Chlorotoluron: chlorotoluron (90 wt %, WG) from Adama Agan LTD. • Mesosulfuron-methyl: Sigma (30 g/L, OD) from Bayer AG. • Test location: Greenhouse of Institute of Plant Protection, Shandong Academy of Agricultural Sciences • Cultivation of test materials: The test soil is formed by mixing the 20 cm layer loam on the ground surface and the culture medium in a ratio of 3:1 as cultivation soil.
(§5) The test weeds are cultivated in a glass greenhouse at a temperature of 15-30° C. and natural light. A certain amount of Aegilops tauschil seeds are sown in a plastic pot with a diameter of 9 cm, covering with 1-2 mm soil, and putting them in an enamel dish filled with water. The bottom infiltration method is used to water them, waiting for the water to seep to the soil surface, and then transferring to a glass greenhouse for cultivation. The agents are applied on the second day after sowing Aegilops tauschii seeds.
(§6) For each active ingredient, the multiple dilution method is used to obtain the other five lower dosages from the highest dosage. A certain amount of agent is measured by pipette or balance, adding it directly to the water, and then diluting it to the required dosage by the multiple dilution method.
(§7) Spraying treatment: ASS-4 automatic control spraying system with a fan-shaped nozzle is used indoors to spray agent, the running speed is adjusted based on nozzle pressure, flow rate, etc. to spray 50 mL of chemical solution on the actual spray area of 1.1 m^2 (equivalent to 30 liters per mu), arranging the plastic pots to be processed on the spraying table evenly, and spraying evenly. The spraying pressure is 0.35 MPa, and the flow rate of the fan-shaped nozzle is 800 mL/min, spraying in order from low dosage to high dosage. Each treatment is repeated 3 times. After spraying, let it dry for one day, placing it in a glass greenhouse, and watering it regularly to keep moist.
Weed investigation method and time: after applying the agent, the symptoms of weed damage (such as growth inhibition, chlorosis, deformity, etc.) are recorded in detail. After 35 days, the fresh weight of aerial part of the weeds in each treatment is weighed, and the measured fresh weight inhibition rate and the measured fresh weight survival rate for each treatment are calculated according to the following equations: […]

Aegilops tauschii [2] = experiment: Soil sealing treatment pot experiment for controlling Aegilops tauschii (Example 1); conditions: for control effect on Aegilops tauschii: single active ingredient, summary of Table 2
Text: as §1, §2, §3, §4, §5, §6, §7
Application time and frequency: the experiment is conducted on the second day after sowing Aegilops tauschii seeds, and the soil is evenly sprayed. The application time is Mar. 10, 2020, with one application.
Weed investigation method and time: after applying the agent, the symptoms of weed damage (such as growth inhibition, chlorosis, deformity, etc.) are recorded in detail. […]

Lolium multiflorum Lamk = experiment: Soil sealing treatment pot experiment for controlling Lolium multiflorum Lamk (Example 2)

COC(=O)c1ccc(CNS(C)(=O)=O)cc1S(=O)(=O)NC(=O)Nc1nc(OC)cc(OC)n1 [mesosulfuron-methyl, 2-[3-(4,6-dimethoxypyrimidin-2-yl)ureasulfonyl]-4-methylsulfonamide methyl benzoate]
Actual fresh weight survival rate (%) - E (Aegilops tauschii [1]; 5 gai/ha): 93.1% | Actual fresh weight survival rate (%) - E (Aegilops tauschii [1]; 10 gai/ha): 88.8% | Actual fresh weight survival rate (%) - E (Aegilops tauschii [1]; 20 gai/ha): 76.7% | inhibition at 5 g/ha (Aegilops tauschii [1]; Aegilops tauschii, soil, 5 gai/ha, read-out: Actual fresh weight inhibition rate %): 6.9% | inhibition at 10 g/ha (Aegilops tauschii [1]; Aegilops tauschii, soil, 10 gai/ha, read-out: Actual fresh weight inhibition rate %): 11.2% | inhibition at 20 g/ha (Aegilops tauschii [1]; Aegilops tauschii, soil, 20 gai/ha, read-out: Actual fresh weight inhibition rate %): 23.3% | Measured fresh weight survival rate (%) - E (Aegilops tauschii [2]; 1.25 gai/ha, 35 days): 96.1% | Measured fresh weight survival rate (%) - E (Aegilops tauschii [2]; 2.5 gai/ha, 35 days): 100% | Measured fresh weight survival rate (%) - E (Aegilops tauschii [2]; 5 gai/ha, 35 days): 94.81% | Measured fresh weight survival rate (%) - E (Aegilops tauschii [2]; 10 gai/ha, 35 days): 83.12% | Measured fresh weight survival rate (%) - E (Aegilops tauschii [2]; 20 gai/ha, 35 days): 71.43% | Measured fresh weight survival rate (%) - E (Aegilops tauschii [2]; 40 gai/ha, 35 days): 88.31% | inhibition at 1.25 g/ha (Aegilops tauschii [2]; Aegilops tauschii, soil, 840 h, 1.25 gai/ha, 35 days, read-out: Measured fresh weight inhibition rate (%)): 3.9% | inhibition at 2.5 g/ha (Aegilops tauschii [2]; Aegilops tauschii, soil, 840 h, 2.5 gai/ha, 35 days, read-out: Measured fresh weight inhibition rate (%)): 0% | inhibition at 5 g/ha (Aegilops tauschii [2]; Aegilops tauschii, soil, 840 h, 5 gai/ha, 35 days, read-out: Measured fresh weight inhibition rate (%)): 5.19% | inhibition at 10 g/ha (Aegilops tauschii [2]; Aegilops tauschii, soil, 840 h, 10 gai/ha, 35 days, read-out: Measured fresh weight inhibition rate (%)): 16.9% | inhibition at 20 g/ha (Aegilops tauschii [2]; Aegilops tauschii, soil, 840 h, 20 gai/ha, 35 days, read-out: Measured fresh weight inhibition rate (%)): 28.6% | inhibition at 40 g/ha (Aegilops tauschii [2]; Aegilops tauschii, soil, 840 h, 40 gai/ha, 35 days, read-out: Measured fresh weight inhibition rate (%)): 11.7% | control effect on Aegilops tauschii (Aegilops tauschii [2]): substantively ineffective | Measured fresh weight survival rate (%) - E (Lolium multiflorum Lamk; 1.25 gai/ha, 35 days): 96.7% | Measured fresh weight survival rate (%) - E (Lolium multiflorum Lamk; 2.5 gai/ha, 35 days): 94.51% | Measured fresh weight survival rate (%) - E (Lolium multiflorum Lamk; 5 gai/ha, 35 days): 83.52% | Measured fresh weight survival rate (%) - E (Lolium multiflorum Lamk; 10 gai/ha, 35 days): 60.44% | Measured fresh weight survival rate (%) - E (Lolium multiflorum Lamk; 20 gai/ha, 35 days): 39.56% | Measured fresh weight survival rate (%) - E (Lolium multiflorum Lamk; 40 gai/ha, 35 days): 6.59% | inhibition at 1.25 g/ha (Lolium multiflorum Lamk; Lolium multiflorum, soil, 840 h, 1.25 gai/ha, 35 days, read-out: Measured fresh weight inhibition rate (%)): 3.3% | inhibition at 2.5 g/ha (Lolium multiflorum Lamk; Lolium multiflorum, soil, 840 h, 2.5 gai/ha, 35 days, read-out: Measured fresh weight inhibition rate (%)): 5.49% | inhibition at 5 g/ha (Lolium multiflorum Lamk; Lolium multiflorum, soil, 840 h, 5 gai/ha, 35 days, read-out: Measured fresh weight inhibition rate (%)): 16.5% | inhibition at 10 g/ha (Lolium multiflorum Lamk; Lolium multiflorum, soil, 840 h, 10 gai/ha, 35 days, read-out: Measured fresh weight inhibition rate (%)): 39.6% | inhibition at 20 g/ha (Lolium multiflorum Lamk; Lolium multiflorum, soil, 840 h, 20 gai/ha, 35 days, read-out: Measured fresh weight inhibition rate (%)): 60.4% | inhibition at 40 g/ha (Lolium multiflorum Lamk; Lolium multiflorum, soil, 840 h, 40 gai/ha, 35 days, read-out: Measured fresh weight inhibition rate (%)): 93.4%

Cn1nc(C(F)(F)F)c(CS(=O)(=O)C2=NOC(C)(C)C2)c1OC(F)F [pyroxasulfone, 3-[(5-difluoromethoxy-1-methyl-3-trifluoromethylpyrazol-4-yl)methylsulfonyl]-4,5-dihydro-5,5-dimethyl-1,2-isoxazole]
Actual fresh weight survival rate (%) - E (Aegilops tauschii [1]; 45 gai/ha): 75.0% | Actual fresh weight survival rate (%) - E (Aegilops tauschii [1]; 90 gai/ha): 51.7% | Actual fresh weight survival rate (%) - E (Aegilops tauschii [1]; 180 gai/ha): 34.5% | inhibition at 45 g/ha (Aegilops tauschii [1]; Aegilops tauschii, soil, 45 gai/ha, read-out: Actual fresh weight inhibition rate %): 25% | inhibition at 90 g/ha (Aegilops tauschii [1]; Aegilops tauschii, soil, 90 gai/ha, read-out: Actual fresh weight inhibition rate %): 48.3% | inhibition at 180 g/ha (Aegilops tauschii [1]; Aegilops tauschii, soil, 180 gai/ha, read-out: Actual fresh weight inhibition rate %): 65.5% | Measured fresh weight survival rate (%) - E (Aegilops tauschii [2]; 5.625 gai/ha, 35 days): 101.3% | Measured fresh weight survival rate (%) - E (Aegilops tauschii [2]; 11.25 gai/ha, 35 days): 97.4% | Measured fresh weight survival rate (%) - E (Aegilops tauschii [2]; 22.5 gai/ha, 35 days): 98.7% | Measured fresh weight survival rate (%) - E (Aegilops tauschii [2]; 45 gai/ha, 35 days): 79.22% | Measured fresh weight survival rate (%) - E (Aegilops tauschii [2]; 90 gai/ha, 35 days): 75.32% | Measured fresh weight survival rate (%) - E (Aegilops tauschii [2]; 180 gai/ha, 35 days): 54.55% | inhibition at 5.625 g/ha (Aegilops tauschii [2]; Aegilops tauschii, soil, 840 h, 5.625 gai/ha, 35 days, read-out: Measured fresh weight inhibition rate (%)): -1.3% | inhibition at 11.25 g/ha (Aegilops tauschii [2]; Aegilops tauschii, soil, 840 h, 11.25 gai/ha, 35 days, read-out: Measured fresh weight inhibition rate (%)): 2.6% | inhibition at 22.5 g/ha (Aegilops tauschii [2]; Aegilops tauschii, soil, 840 h, 22.5 gai/ha, 35 days, read-out: Measured fresh weight inhibition rate (%)): 1.3% | inhibition at 45 g/ha (Aegilops tauschii [2]; Aegilops tauschii, soil, 840 h, 45 gai/ha, 35 days, read-out: Measured fresh weight inhibition rate (%)): 20.8% | inhibition at 90 g/ha (Aegilops tauschii [2]; Aegilops tauschii, soil, 840 h, 90 gai/ha, 35 days, read-out: Measured fresh weight inhibition rate (%)): 24.7% | inhibition at 180 g/ha (Aegilops tauschii [2]; Aegilops tauschii, soil, 840 h, 180 gai/ha, 35 days, read-out: Measured fresh weight inhibition rate (%)): 45.5% | control effect on Aegilops tauschii (Aegilops tauschii [2]): certain effect | Measured fresh weight survival rate (%) - E (Lolium multiflorum Lamk; 5.625 gai/ha, 35 days): 69.23% | Measured fresh weight survival rate (%) - E (Lolium multiflorum Lamk; 11.25 gai/ha, 35 days): 53.85% | Measured fresh weight survival rate (%) - E (Lolium multiflorum Lamk; 22.5 gai/ha, 35 days): 51.65% | Measured fresh weight survival rate (%) - E (Lolium multiflorum Lamk; 45 gai/ha, 35 days): 20.88% | Measured fresh weight survival rate (%) - E (Lolium multiflorum Lamk; 90 gai/ha, 35 days): 0% | Measured fresh weight survival rate (%) - E (Lolium multiflorum Lamk; 180 gai/ha, 35 days): 0% | inhibition at 5.625 g/ha (Lolium multiflorum Lamk; Lolium multiflorum, soil, 840 h, 5.625 gai/ha, 35 days, read-out: Measured fresh weight inhibition rate (%)): 30.8% | inhibition at 11.25 g/ha (Lolium multiflorum Lamk; Lolium multiflorum, soil, 840 h, 11.25 gai/ha, 35 days, read-out: Measured fresh weight inhibition rate (%)): 46.1% | inhibition at 22.5 g/ha (Lolium multiflorum Lamk; Lolium multiflorum, soil, 840 h, 22.5 gai/ha, 35 days, read-out: Measured fresh weight inhibition rate (%)): 48.4% | inhibition at 45 g/ha (Lolium multiflorum Lamk; Lolium multiflorum, soil, 840 h, 45 gai/ha, 35 days, read-out: Measured fresh weight inhibition rate (%)): 79.1% | inhibition at 90 g/ha (Lolium multiflorum Lamk; Lolium multiflorum, soil, 840 h, 90 gai/ha, 35 days, read-out: Measured fresh weight inhibition rate (%)): 100% | inhibition at 180 g/ha (Lolium multiflorum Lamk; Lolium multiflorum, soil, 840 h, 180 gai/ha, 35 days, read-out: Measured fresh weight inhibition rate (%)): 100% | effect on Lolium multiflorum Lamk (Lolium multiflorum Lamk; single active ingredient, summary of Table 2): best effect
